In general, AC50 refers to the concentration giving half of the maximal activity seen.

Activity calls are given as the source filed them.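 The calls were made as follows: active = parasite count per well reduced by over 3 SD from the mean, with host cell number above 80% of untreated; inactive = the rest.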

The assay relates to L. donovani amastigotes in THP-1 macrophages, DAPI imaging, 72 h. The assay is described as follows: antileishmanial activity in infected macrophages – imaging, THP-1 host macrophages, single concentration (AID 977614).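 Also: signal is the parasite per host cell ratio from DAPI stained kinetoplasts and nuclei.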

`O=C(CC(F)(F)F)N1C[C@@H]2[C@H](c3ccccc31)[C@@H](CO)N2C(=O)c1ccncc1`: the AC50 is > 10 µM (inactive).

In the case of `COc1ccccc1CN1[C@H](CO)[C@@H]2c3ccccc3N(C(=O)c3cccnc3)C[C@@H]21`, the AC50 is > 10 µM (inactive).

As to `O=C(c1ccc2c(c1)OCO2)N1C[C@@H]2[C@H](c3ccccc31)[C@H](CO)N2C(=O)CC1CC1`, the AC50 is > 10 µM (inactive).

For the molecule `CCCN1[C@H](CO)[C@H](c2ccc(C#Cc3ccccc3)cc2)[C@@H]1CNC1CCCC1`, the AC50 is > 10 µM (inactive).

Regarding `CCN(C[C@H]1[C@H](c2ccc(-c3cccnc3)cc2)[C@H](CO)N1C(C)=O)C(C)=O`, the AC50 is > 10 µM (inactive).

With `CC(=O)N1[C@H](CO)[C@H](c2ccccc2)[C@@H]1CN(C(=O)c1ccccc1F)C(C)C`, the AC50 is > 10 µM (inactive).

Take `Cc1noc(C)c1S(=O)(=O)N(C)C[C@@H]1OCc2cn(nn2)CCCC(=O)N([C@@H](C)CO)C[C@H]1C`: the AC50 is > 10 µM (inactive).

`COCC(=O)N(C[C@H]1N[C@H](CO)[C@@H]1c1ccc(C2=CCCC2)cc1)C1CCCC1`: the AC50 was > 10 µM (inactive).

As for `COCC(=O)NC[C@H]1[C@H](c2ccccc2)[C@@H](CO)N1C(=O)c1ccccc1`, the AC50 is > 10 µM (inactive).

Turning to `CCC(=O)N(C)C[C@H]1[C@@H](c2ccc(-c3cccc(F)c3)cc2)[C@@H](CO)N1C(C)=O`, the AC50 is > 10 µM (inactive).

Turning to `C[C@@H]1CN([C@@H](C)CO)C(=O)CCCn2nncc2CO[C@H]1CN(C)S(=O)(=O)c1ccc2c(c1)OCCCO2`, the AC50 is > 10 µM (inactive).

Regarding `CNC[C@@H]1OCc2cn(nn2)CCCC(=O)N([C@@H](C)CO)C[C@H]1C`, the AC50 was > 10 µM (inactive).

Take `CCCC(=O)N1C[C@H]2[C@@H](c3ccccc31)[C@H](CO)N2C(=O)Nc1ccc(F)cc1`: the AC50 was > 10 µM (inactive).

Turning to `C[C@@H]1CN([C@@H](C)CO)C(=O)CCCn2nncc2CO[C@@H]1CN(C)CC1CCCCC1`, the AC50 is > 10 µM (inactive).

`C[C@H]1CN([C@@H](C)CO)C(=O)CCCn2nncc2CO[C@@H]1CN(C)Cc1ccc2c(c1)OCCN2C`: the AC50 was > 10 µM (inactive).

Turning to `CC(=O)NC[C@H]1[C@@H](c2ccc(-c3cccnc3)cc2)[C@@H](CO)N1C(=O)CC1CC1`, the AC50 was > 10 µM (inactive).

On to `COCC(=O)N1[C@@H](CO)[C@@H]2c3ccccc3N(C(=O)c3cccnc3)C[C@@H]21`, for which the AC50 is > 10 µM (inactive).

In the case of `O=C(NC[C@@H]1N[C@@H](CO)[C@H]1c1ccccc1)c1ccccc1F`, the AC50 was > 10 µM (inactive).

Consider `Cc1noc(C)c1S(=O)(=O)N(C)C[C@H]1OCc2cn(nn2)CCCC(=O)N([C@H](C)CO)C[C@H]1C`, for which the AC50 is > 10 µM (inactive).

In the case of `CCCNC(=O)N1C[C@H]2[C@@H](c3ccccc31)[C@H](CO)N2C(=O)CN1CCOCC1`, the AC50 is > 10 µM (inactive).

In the case of `O=C(CC(F)(F)F)N1C[C@@H]2[C@H](c3ccccc31)[C@@H](CO)N2C(=O)C1CCCCC1`, the AC50 is > 10 µM (inactive).

For `O=C(Cc1ccccc1)N1C[C@@H]2[C@H](c3ccccc31)[C@@H](CO)N2S(=O)(=O)c1ccccc1`, the AC50 is > 10 µM (inactive).

In the case of `O=C(CC(F)(F)F)N1C[C@H]2[C@@H](c3ccccc31)[C@H](CO)N2C(=O)C1CCCCC1`, the AC50 was > 10 µM (inactive).

Take `CCS(=O)(=O)N(C)C[C@H]1[C@@H](c2ccccc2)[C@@H](CO)N1C(=O)CN(C)C`: the AC50 was > 10 µM (inactive).

Take `CCCC#Cc1ccc([C@H]2[C@@H](CO)N(C(C)=O)[C@H]2CN(C)C(=O)C2CC2)cc1`: the AC50 was > 10 µM (inactive).

Turning to `CCC(=O)N1[C@H](CO)[C@H](c2ccc(-c3cccc(OC)c3)cc2)[C@H]1CNC(C)=O`, the AC50 was > 10 µM (inactive).

For the molecule `O=C(Nc1ccc(F)cc1)N1C[C@H]2[C@@H](c3ccccc31)[C@@H](CO)N2Cc1ccccc1Cl`, the AC50 was > 10 µM (inactive).

As to `O=C(C1CCCCC1)N1[C@@H](CO)[C@@H]2c3ccccc3NC[C@@H]21`, the AC50 was > 10 µM (inactive).
